The source of these data is US10774042B2, “Crystalline forms of apremilast” (ZAKLADY FARMACEUTYCZNE POLPHARMA SA, priority 2016, dated 2020).

Holding throughout (type): physicochemical
The nature of data set [1]: Water solubility of crystalline forms. Particulars: for Water solubility: Form B value according to literature findings and experimental data, Form M at the same conditions.
The nature of data set [2]: Moisture sorption analysis (Dynamic Vapour Sorption). Particulars: result in words. As for the experimental part:
Water Vapour Sorption isotherms were obtained using a Dynamic Vapour Sorption apparatus (model: DVS—Advantage, supplier: Surface Measurement Systems Limited). The DVS apparatus consists of an ultra-microbalance housed inside a temperature-controlled cabinet. The sample was placed into a DVS sample pan under a stream of nitrogen (200 sccm) at 25° C. The humidity was increased ramping in 10% RH (relative humidity) steps from close to 0% RH to 90% RH (sorption phase). Next the humidity was decreased in a similar fashion for the desorption phase. The sample was held at each RH step for mass stabilization (dm/dt 0.02%/min) but not less than 10 minutes. Two cycles of sorption and desorption were investigated.

Data set [3] is described as follows: Dissolution studies of tablets, paddle method. The following applies: at 30 minutes. As for the experimental part:
Dissolution studies were performed using a Hanson SR8PLUS dissolution apparatus, according to European Pharmacopoeia apparatus, paddle method. The samples were tested in 900 mL pH 6.8 with 0.3% SLS at 37.0° C.+/−0.5° C. and the paddle rotation speed was set at 75 rpm. Dissolution study was conducted for 60 min and samples were analyzed using HPLC method.

Regarding `CCOc1cc([C@@H](CS(C)(=O)=O)N2C(=O)c3cccc(NC(C)=O)c3C2=O)ccc1OC` [Form B, N-[2-[(1S)-1-(3-ethoxy-4-methoxyphenyl)-2-(methylsulfonyl)ethyl]-1,3-dioxo-2,3-dihydro-1H-isoindol-4-yl]acetamide, reference compound], in data set [1], the Water solubility fell in the range of 7 to 12 µg/mL.
In the case of `CCOc1cc([C@@H](CS(C)(=O)=O)N2C(=O)c3cccc(NC(C)=O)c3C2=O)ccc1OC` [Form M, N-[2-[(1S)-1-(3-ethoxy-4-methoxyphenyl)-2-(methylsulfonyl)ethyl]-1,3-dioxo-2,3-dihydro-1H-isoindol-4-yl]acetamide], in data set [1], the Water solubility is 29 µg/mL. Moreover, in data set [1] (same conditions), the “Water solubility of Form M relative to Form B (times greater)” value was about 3 times. In data set [2], the Hygroscopicity result is recorded as “substantially non-hygroscopic”.
With `CCOc1cc([C@@H](CS(C)(=O)=O)N2C(=O)c3cccc(NC(C)=O)c3C2=O)ccc1OC` [Form N, N-[2-[(1S)-1-(3-ethoxy-4-methoxyphenyl)-2-(methylsulfonyl)ethyl]-1,3-dioxo-2,3-dihydro-1H-isoindol-4-yl]acetamide], in data set [2], the Hygroscopicity entry is listed as “substantially non-hygroscopic” and the “Stability with respect to humidity” value is recorded as “stable with respect to humidity”. Besides, in data set [3], the “Higher dissolution rate compared with prior art Form B” value is “more than 50%”.
